The text below walks through data of patent EP0947820A2, “Method for sample preparation” (Evotec BioSystems GmbH, priority 1998, dated 1999).

The experiment has as its target HIV Reverse Transcriptase (HIV-RT) (Human immunodeficiency virus type 1 group M subtype B, UniProt P04585). Kind of experiment: primer extension assay using HIV Reverse Transcriptase after dry-storage of the inhibitor, read out by FCS. It is filed as biochemical. As to conditions: stored in a desiccator overnight at room-temperature, reaction 40°C, 2 min. The protocol:
The method, according to claim 1 was used for a primer extension assay using HIV Reverse Transcriptase (HIV-RT). Precoating the assay plate: 1 µl aliquots of 0.1% (w/v) aqueous solution of HBC (2-hydroxypropyl-β-cyclodextrin) was pipetted into the wells of a nanotiter plate and subjected to a flow of nitrogen gas until all the solvent (water) was evaporated. […] As a control, a section of the nanotiter plate was not coated with HBC. The plate was subsequently loaded with 1 µl (1 mg/ml) of the HIV Reverse Transcriptase Inhibitor AZT (3'Azido-3'deoxythymidine) contained in 50 mM DMSO/ 10 mM NaCl. The solvent (DMSO/water) evaporated by exposure to a flow of nitrogen gas at room-temperature. As a control, some wells of the nanotiter plate (coated and non-coated) were not charged with AZT. The plates were stored in a desiocator overnight at room-temperature.
The primer extension assay was performed by pipetting 900 nanoliter of a reaction mix containing: 2 pmol TMR-lablled 20 base oligo deoxynucleotide anneald to a 200 base RNA-template (gag region of the HIV genome), 50 mM Tris-HCl pH 8.2, dissolved, 50 mM NaCl, 1 mM of each dNTP. The nanotiter plate was incubated at 40°C for 2 min and the extension reaction stopped by the addition of 100 nanoliter 0.5 M EDTA. The primer extension products were analyzed by FCS.
• 1. […]

`Cc1cn([C@H]2C[C@H](N=[N+]=[N-])[C@@H](CO)O2)c(=O)[nH]c1=O` [AZT, 3'Azido-3'deoxythymidine]: the Primer extension result is given as “only partially inhibited” (AZT 1 µl (1 mg/ml) dried in nanotiter plate wells not coated with HBC) and “inhibited” (AZT 1 µl (1 mg/ml) dried in nanotiter plate wells precoated with HBC (1 µl of 0.1% w/v)).
